The source of these data is patent US20210393735A1, “PHARMACEUTICAL COMPOSITION COMPRISING TEICOPLANIN” (GALENUS G.H. AG, priority 2018, published 2021).

Data set [1] has as its system clinical isolates of Clostridium difficile. The settings on record: isolates from patients with hospital or community acquired CDI; Jamal, Rotimi 2016 [3]; cited from earlier work.
Data set [2] is described as follows: Phase-1 open cross-over cohort study in healthy subjects: conventional vs novel teicoplanin dosage regimen (pharmacokinetics, tolerability). The data set is classed as in vivo, human (healthy subjects). On the procedure:
Teicoplanin: Conventional Dosage Regimen as Compared to the Novel Dosage Regimen
Phase-1 Study in Healthy Subjects
The study is performed as an open, cross over cohort-study after having received ethical approval and written consent by the participating 6 healthy subjects (3 males and 3 females). The principle study design of Outman et al (1990 [4]) is used with the following modification: 6 loading doses are followed by the maintenance dosing phase up to a total of 6 days.
In the first cross over comparative study, the following two dosage regimens are used:
Regimen A1: 6 loading dosages of 400 mg twice daily (bid) followed by 3 dosages of 400 mg once daily (total 6 days): total dosage 3600 mg
Regimen B1: first loading dose 800 mg followed by 4 dosages 400 mg bid, followed by 6 dosages 200 mg bid (total 6 days): total dosage 3600 mg.
In the second cross over comparative study, the following two dosage regimens are used:
Regimen A2: 6 loading dosages of 800 mg bid followed by 3 dosages of 800 mg once daily (total 6 days): total dosage 7200 mg
Regimen B2: 6 loading dosages of 800 mg bid followed by 6 dosages 400 mg bid (total 6 days): total dosage 7200 mg.

The conditions of data set [3]: in vivo; cited from earlier work.
Data set [4] deals with Gram-positive bacteria such as staphylococci (including methicillin-resistant strains), streptococci, enterococci and many anaerobic Gram-positive bacteria. The settings on record: Campoli-Richards et al. 1990 [2]; cited from earlier work.
Setting [5] is: overall, no significant difference between regimens A and B in both studies.

For the substance teicoplanin, in data set [1], the “activity against clinical isolates” value was “active”. Further, the “phlebitis or renal, hepatic, or ototoxicity” value in data set [2] (1st and 2nd study) is reported as “no evidence”. Moreover, in data set [2] (1st and 2nd study, both dosing regimens), the tolerability result is given as “generally well tolerated”. The trough levels lay in the range of 8 to 15 mg/L in data set [2] (1st study, 1st day, regimen A1 (6 x 400 mg bid, then 3 x 400 mg once daily)); 18 to 25 mg/L in data set [2] (1st study, 1st day, regimen B1 (800 mg, then 4 x 400 mg bid, then 6 x 200 mg bid)); 10 to 18 mg/L in data set [2] (1st study, day 4 to 6, regimen A1); 20 to 30 mg/L in data set [2] (1st study, day 4 to 6, regimen B1); 14 to 24 mg/L in data set [2] (2nd study, 1st day, regimen A2 (6 x 800 mg bid, then 3 x 800 mg once daily)); 25 to 34 mg/L in data set [2] (2nd study, 1st day, regimen B2 (6 x 800 mg bid, then 6 x 400 mg bid)). Besides, the trough levels lay within 18 to 26 mg/L in data set [2] (2nd study, day 4 to 6, regimen A2) and 30 to 38 mg/L in data set [2] (2nd study, day 4 to 6, regimen B2). Also, in data set [2] (at the 1st day (first study only) and from day 4 on), the “higher trough levels with novel vs conventional dosage regimen” value is “about 50%”. The “lightheadedness during the infusion” value in data set [2] (during infusion of some, but not all, doses, 6 healthy subjects) is given as “Two subjects experience transient lightheadedness”. In data set [2] (setting [5]), this substance had a renal clearance of 0.19 ± 0.015 mL/min/kg. Moreover, the t1/2 in data set [2] (setting [5]) is on record as 157+93 h. In data set [2] (setting [5]), the total clearance was 0.21 ± 0.018 mL/min/kg. In data set [3], the “terminal half-life, mean (±SD)” value is 157 (±93) hours (h). In data set [3], the “terminal half-life, median (range)” value is on record as 168 (111-278) h. The susceptibility in vitro entry in data set [4] is reported as “susceptible”.
